# Tests used:
# AXL = target: T1, AXL (Homo sapiens, UniProt P30530); test: TR-FRET kinase activity assay, AXL; assay type: biochemical; conditions: ATP at Km, 60 minutes
# T1 sequence (P30530 26-894): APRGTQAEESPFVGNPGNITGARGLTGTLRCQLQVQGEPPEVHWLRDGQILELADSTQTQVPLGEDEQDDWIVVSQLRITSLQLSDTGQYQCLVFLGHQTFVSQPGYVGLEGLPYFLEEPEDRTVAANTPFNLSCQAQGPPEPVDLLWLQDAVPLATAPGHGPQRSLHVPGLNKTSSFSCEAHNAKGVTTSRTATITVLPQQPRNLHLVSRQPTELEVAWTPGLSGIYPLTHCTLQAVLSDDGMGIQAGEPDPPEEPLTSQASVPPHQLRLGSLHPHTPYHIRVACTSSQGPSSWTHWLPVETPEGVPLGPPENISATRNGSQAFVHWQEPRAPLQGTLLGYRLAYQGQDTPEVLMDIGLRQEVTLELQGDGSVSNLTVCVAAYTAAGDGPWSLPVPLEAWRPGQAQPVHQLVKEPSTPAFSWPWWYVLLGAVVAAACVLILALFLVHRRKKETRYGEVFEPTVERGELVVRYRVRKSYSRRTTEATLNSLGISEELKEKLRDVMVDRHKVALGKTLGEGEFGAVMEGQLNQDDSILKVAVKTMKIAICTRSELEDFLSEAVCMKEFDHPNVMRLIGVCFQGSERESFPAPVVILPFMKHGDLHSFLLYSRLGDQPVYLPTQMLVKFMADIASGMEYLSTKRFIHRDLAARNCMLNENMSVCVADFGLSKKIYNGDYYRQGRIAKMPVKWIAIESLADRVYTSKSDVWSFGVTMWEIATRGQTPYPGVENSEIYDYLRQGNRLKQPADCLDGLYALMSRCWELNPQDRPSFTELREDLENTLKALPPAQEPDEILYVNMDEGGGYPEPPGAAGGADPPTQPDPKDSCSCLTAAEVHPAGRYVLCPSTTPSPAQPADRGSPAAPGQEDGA
# In short: (§1)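 Steps: compound, enzyme and labeled peptide combined at RT (50 mM HEPES pH 7.5, 10 mM MgCl2, 1 mM DTT); ATP added at Km; 60 min reaction; EDTA quench; Eu-antibody development 30 min in darkness; TR-FRET measured and IC50 fitted.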
# MERTK = target: T2, MERTK (Homo sapiens, UniProt Q12866); test: TR-FRET kinase activity assay, MERTK; assay type: biochemical; conditions: for IC50: TR-FRET activity assay, ATP at Km, 60 minutes, read-out: Mer IC50; for Mer/Flt3 ratio (FLT3 IC50/Mer IC50): ratio calculated as FLT3 IC50/Mer IC50
# T2 sequence (Q12866 21-999): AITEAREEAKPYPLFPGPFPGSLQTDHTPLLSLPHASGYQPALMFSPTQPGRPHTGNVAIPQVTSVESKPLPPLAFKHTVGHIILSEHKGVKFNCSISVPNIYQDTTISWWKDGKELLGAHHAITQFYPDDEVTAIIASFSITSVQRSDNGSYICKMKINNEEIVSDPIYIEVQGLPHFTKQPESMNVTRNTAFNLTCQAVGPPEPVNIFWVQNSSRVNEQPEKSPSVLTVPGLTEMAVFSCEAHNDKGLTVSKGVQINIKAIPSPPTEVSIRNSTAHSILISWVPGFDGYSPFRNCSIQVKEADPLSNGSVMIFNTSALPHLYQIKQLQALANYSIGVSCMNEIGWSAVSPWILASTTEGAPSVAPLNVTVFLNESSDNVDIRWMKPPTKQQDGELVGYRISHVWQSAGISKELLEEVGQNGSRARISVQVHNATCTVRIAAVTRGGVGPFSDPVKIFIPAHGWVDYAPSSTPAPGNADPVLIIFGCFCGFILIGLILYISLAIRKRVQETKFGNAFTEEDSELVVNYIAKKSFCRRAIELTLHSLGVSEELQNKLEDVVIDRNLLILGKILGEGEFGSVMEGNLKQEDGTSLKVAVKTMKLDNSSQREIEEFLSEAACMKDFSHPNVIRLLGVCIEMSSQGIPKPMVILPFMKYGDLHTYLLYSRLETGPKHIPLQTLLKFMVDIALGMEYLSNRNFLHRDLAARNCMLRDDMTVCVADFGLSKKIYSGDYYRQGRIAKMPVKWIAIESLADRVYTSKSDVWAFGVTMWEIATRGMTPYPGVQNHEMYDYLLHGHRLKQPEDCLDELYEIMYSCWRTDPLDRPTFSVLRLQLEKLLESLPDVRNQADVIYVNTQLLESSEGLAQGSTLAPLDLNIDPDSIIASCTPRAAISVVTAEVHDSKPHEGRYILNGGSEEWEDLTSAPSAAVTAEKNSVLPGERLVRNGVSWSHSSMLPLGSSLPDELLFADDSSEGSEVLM
# In short: as §1
SMILES,IC50 (AXL) [nM],IC50 (MERTK) [nM],Mer/Flt3 ratio (FLT3 IC50/Mer IC50) (MERTK)
O=C(O)[C@H]1CC[C@H](Nc2ncc3c(OC4CCOCC4)ncc([C@H]4CC[C@H](O)CC4)c3n2)CC1 [Compound 410],1000 to 10000,≤ 100,+++ (a ratio of >100)
C[C@H](Nc1ncc2c(O[C@H]3C[C@@H](O)C3)ncc([C@H]3CC[C@H](O)CC3)c2n1)C(F)F [Compound 411],100 to 1000,≤ 100,+++ (a ratio of >100)
C[C@@H](CC(F)(F)F)Nc1ncc2c(O[C@@H]3C[C@H]4CC[C@@H](C3)N4C[C@H]3CCCO3)ncc([C@H]3CC[C@H](O)CC3)c2n1 [Compound 412],≤ 100,≤ 100,+++ (a ratio of >100)
C[C@@H](CC(F)(F)F)Nc1ncc2c(O[C@@H]3C[C@H]4CC[C@@H](C3)N4[C@H]3CCOC3)ncc([C@H]3CC[C@H](O)CC3)c2n1 [Compound 413],≤ 100,≤ 100,+++ (a ratio of >100)
C[C@@H](CC(F)(F)F)Nc1ncc2c(O[C@@H]3C[C@H]4CC[C@@H](C3)N4C[C@H]3CCOC3)ncc([C@H]3CC[C@H](O)CC3)c2n1 [Compound 414],≤ 100,≤ 100,+++ (a ratio of >100)
C[C@@H](CC(F)(F)F)Nc1ncc2c(O[C@@H]3C[C@H]4CC[C@@H](C3)N4[C@@H]3CCOC3)ncc([C@H]3CC[C@H](O)CC3)c2n1 [Compound 415],≤ 100,≤ 100,+++ (a ratio of >100)
C[C@@H](CC(F)(F)F)Nc1ncc2c(O[C@@H]3C[C@H]4CC[C@@H](C3)N4C[C@@H]3CCOC3)ncc([C@H]3CC[C@H](O)CC3)c2n1 [Compound 416],≤ 100,≤ 100,+++ (a ratio of >100)
COC[C@H](C)Nc1ncc2c(O[C@H]3C[C@H](C(=O)N4CCN(C)CC4)C3)ncc([C@H]3CC[C@H](O)CC3)c2n1 [Compound 419],100 to 1000,≤ 100,+++ (a ratio of >100)
C[C@@H](CC(F)(F)F)Nc1ncc2c(O[C@@H]3C[C@H]4CC[C@@H](C3)N4C[C@@H]3CCCO3)ncc([C@H]3CC[C@H](O)CC3)c2n1 [Compound 421],≤ 100,≤ 100,+++ (a ratio of >100)
COC[C@H](C)Nc1ncc2c(O[C@H]3C[C@@H](O)C3)ncc(-c3ccnnc3)c2n1 [Compound 425],1000 to 10000,100 to 1000,++ (a ratio of between 10 and 100)
COC[C@H](C)Nc1ncc2c(O[C@H]3C[C@@H](O)C3)ncc([C@H]3CC[C@](C)(O)CC3)c2n1 [Compound 426],100 to 1000,≤ 100,+++ (a ratio of >100)
COC[C@H](C)Nc1ncc2c(O[C@H]3C[C@@H](O)C3)ncc([C@H]3CC[C@@](C)(O)CC3)c2n1 [Compound 427],100 to 1000,≤ 100,+++ (a ratio of >100)

# Results, then the compound that gave them:
IC50 (AXL) [nM],IC50 (MERTK) [nM],Mer/Flt3 ratio (FLT3 IC50/Mer IC50) (MERTK),SMILES
≤ 100,≤ 100,+++ (a ratio of >100),CO[C@H]1C[C@@H]1Nc1ncc2c(O[C@H]3C[C@@H](O)C3)ncc([C@H]3CC[C@H](O)CC3)c2n1 [Compound 417]
≤ 100,≤ 100,+++ (a ratio of >100),C[C@@H](CC(F)(F)F)Nc1ncc2c(OC3CC(C)(C)N(C[C@@H]4CCCO4)C(C)(C)C3)ncc([C@H]3CC[C@H](O)CC3)c2n1 [Compound 418]
≤ 100,≤ 100,+++ (a ratio of >100),C[C@@H](CC(F)(F)F)Nc1ncc2c(O[C@H]3C[C@H](CN4CCOCC4)C3)ncc([C@H]3CC[C@H](O)CC3)c2n1 [Compound 420]
≤ 100,≤ 100,+++ (a ratio of >100),C[C@@H](CC(F)(F)F)Nc1ncc2c(O[C@H]3C[C@H](N4CCOCC4)C3)ncc([C@H]3CC[C@H](O)CC3)c2n1 [Compound 422]
≤ 100,≤ 100,+++ (a ratio of >100),C[C@@H](CC(F)(F)F)Nc1ncc2c(O[C@H]3C[C@@H](O)C3)ncc([C@H]3CC[C@](C)(O)CC3)c2n1 [Compound 423]
≤ 100,≤ 100,+++ (a ratio of >100),C[C@@H](CC(F)(F)F)Nc1ncc2c(O[C@H]3C[C@@H](O)C3)ncc([C@H]3CC[C@@](C)(O)CC3)c2n1 [Compound 424]
≤ 100,≤ 100,+++ (a ratio of >100),C[C@@H](CC(F)F)Nc1ncc2c(O[C@H]3C[C@@H](O)C3)ncc([C@H]3CC[C@H](O)CC3)c2n1 [Compound 428]
≤ 100,≤ 100,+++ (a ratio of >100),C[C@@H](CC(F)(F)F)Nc1ncc2c(O[C@H]3C[C@@](C)(O)C3)ncc([C@H]3CC[C@H](O)CC3)c2n1 [Compound 429]

# From US20200291018A1, “TAM KINASE INHIBITORS” (SYROS PHARMACEUTICALS, INC., priority 2017, published 2020)
